From patent US20200345725A1, “Methods and Compositions for Treating Cancer” (Omeros Corporation, priority 2019, published 2020)
pEC50: −log10 of the molar value. Values joined by “and” are separate entries in the source; they are usually repeats but may differ in a detail not shown here. Equal entries are not always repeated. “Also recorded” adds a separate entry of the source.

Experiments:
GPR174 = GPR174 (Homo sapiens, UniProt Q9BXC1); test: CRE-Luc reporter Gs signaling assay with GPR174; assay type: cell-based; set-up: host or cells: HEK293 or CHO cell lines (ATCC); conditions: for Gs pathway in the presence of GPR174 (CRE-Luc reporter): increasing concentrations of compound; for Fold decrease in Gs signaling activity / pEC50 / Human GPR174 CRE Activity: nature of the compound (IA, antagonist, NM): pCRE-Luc reporter; for pEC50: multiple values = separate experiments
ADBR2 = target: T1, ADBR2 (Homo sapiens, UniProt P07550); test: CRE-Luc reporter assay with control receptor ADBR2; assay type: cell-based
T1 construct: host or cells: HEK293 or CHO cell lines (ATCC)
Procedure: The DNA/lipofectamine 2000 mix (3000 μL) was incubated at room temperature for 30 minutes and then added into a 10 cm culture dish (Corning, NY) containing 70-90% confluent cultured cells, (HEK293 or CHO cell lines (ATCC, VA)), in 15 mL of media. […] The cells were further incubated at 37° C. for various times. The media were removed and the cells lysed.
Compounds were tested in the reporter system with increasing concentrations of GPR174-interacting compounds.
The DNA/lipofectamine 2000 mix (3000 μL) was incubated at room temperature for 30 minutes and then added into a 10 cm culture dish (Corning, NY) containing 70-90% confluent cultured cells, typically HEK293 or CHO cell lines (ATCC, VA), in 15 mL of media. […] Media (26 mL) were added to the detached cells and 120 μL of transfected cells were transferred to each well on a 96-well plate. Increasing concentration of each compound in DMSO (1.2 μl) was added to the cells after plating into the 96-well plate. The cells were further incubated at 37° C. for various times. The media were removed, and the cells lysed.
ADBR2 is a GPCR, like GPR174, that activates the Gs signaling pathway.

T1 sequence (P07550 whole entry): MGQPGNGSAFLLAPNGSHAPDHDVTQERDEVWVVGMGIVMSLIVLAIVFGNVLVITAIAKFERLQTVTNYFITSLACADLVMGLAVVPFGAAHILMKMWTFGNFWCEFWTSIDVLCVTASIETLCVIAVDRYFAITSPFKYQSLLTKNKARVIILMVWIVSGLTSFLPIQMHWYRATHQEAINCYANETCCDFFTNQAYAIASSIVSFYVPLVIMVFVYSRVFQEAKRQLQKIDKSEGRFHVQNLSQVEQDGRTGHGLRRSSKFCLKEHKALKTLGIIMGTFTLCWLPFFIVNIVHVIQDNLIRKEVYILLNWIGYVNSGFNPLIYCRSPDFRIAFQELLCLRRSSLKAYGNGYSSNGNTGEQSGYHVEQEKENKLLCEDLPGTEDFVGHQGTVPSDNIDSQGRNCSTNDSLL
Sequence of GPR174 (Q9BXC1 whole entry): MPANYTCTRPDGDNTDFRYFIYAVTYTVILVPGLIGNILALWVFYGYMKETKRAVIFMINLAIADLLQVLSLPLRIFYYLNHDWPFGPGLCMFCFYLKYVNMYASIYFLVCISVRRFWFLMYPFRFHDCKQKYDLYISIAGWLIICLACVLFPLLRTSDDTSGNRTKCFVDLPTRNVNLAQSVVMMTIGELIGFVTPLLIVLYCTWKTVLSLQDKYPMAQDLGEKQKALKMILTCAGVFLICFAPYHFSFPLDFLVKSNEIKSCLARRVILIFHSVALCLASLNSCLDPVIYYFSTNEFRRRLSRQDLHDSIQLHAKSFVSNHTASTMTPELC

Gs pathway in the presence of GPR174 (CRE-Luc reporter) (GPR174)	Fold decrease in Gs signaling activity (GPR174)	pEC50 (GPR174)	Gs pathway in the presence of ADBR2 (CRE-Luc reporter) (ADBR2)	SMILES	Human GPR174 CRE Activity: nature of the compound (IA, antagonist, NM) (GPR174)
inhibited	8.9 fold	5.92	did not inhibit	CCCCOc1ccc(C2C3=C(CCCC3=O)NC3=C2C(=O)c2ccccc23)cc1 (centres unmarked) [compound 31]	–
inhibited	9.2 fold	5.36	did not inhibit	O=C1CCCC2=C1C(c1ccc(OCCO)cc1)C1=C(N2)c2ccccc2C1=O (centres unmarked) [compound 33]	–
inhibited	8.3 fold	5.59	did not inhibit	O=C1CCCC2=C1C(c1ccc3c(c1)OCCO3)C1=C(N2)c2ccccc2C1=O (centres unmarked) [compound 36]	–
inhibited	4.3 fold	5.18	did not inhibit	O=C1CCCC2=C1C(c1ccncc1)C1=C(N2)c2ccccc2C1=O (centres unmarked) [compound 42]	–
–	3 fold	6.30	–	C=C(C)COc1ccc(NC(=O)Nc2ccccc2)cc1 [compound 56]	inverse agonist
–	–	–	–	O=C(N/N=C/c1cc(Cl)ccc1O)c1ccncc1 [compound 57]	GPR174 antagonists or allosteric modulators; also recorded: Antagonist or allosteric modulator
–	–	–	–	Cc1cc(C(=O)N/N=C/c2cc(Br)ccc2O)c(C)o1 [compound 58]	GPR174 antagonists or allosteric modulators; also recorded: Antagonist or allosteric modulator
–	–	–	–	S=C(NCc1ccco1)Nc1ccc(I)cc1 [compound 59]	NM (“NM” refers to “non-modulator.”)

SMILES	Gs pathway in the presence of GPR174 (CRE-Luc reporter) (GPR174)	Fold decrease in Gs signaling activity (GPR174)	pEC50 (GPR174)	Gs pathway in the presence of ADBR2 (CRE-Luc reporter) (ADBR2)	Human GPR174 CRE Activity: nature of the compound (IA, antagonist, NM) (GPR174)
CCOc1ccc(C2C3=C(CCCC3=O)NC3=C2C(=O)c2ccccc23)cc1 (centres unmarked) [compound 23]	inhibited	14.1 fold	6.40 and 6.05 and 5.92 and 6.00	did not inhibit	–
